Assay results taken from patent publication US20240002375A1, “2-(INDAZOL-5-YL)-6-(PIPERIDIN-4-YL)-1,7-NAPHTHYRIDINE DERIVATIVES AND RELATED COMPOUNDS AS MODULATORS FOR SPLICING NUCLEIC ACIDS AND FOR THE TRE” (REMIX THERAPEUTICS INC., priority 2020, published 2024).
pIC50: −log10 of the molar value.

Assays:
Type in all cases: cell-based
[1] = system: HTT CJ mRNA; assay: Gene panel canonical junction qPCR splicing assay, HTT; settings: Table 4, read-out: HTT IC50 (decrease in CJ mRNA levels)
Protocol: (§1) Compounds described herein were used to modulate RNA transcript abundance in cells. The expression of a target mRNA was measured by detecting the formation of an exon-exon junction in the canonical transcript (CJ). A compound mediated exon-inclusion event was detected by observing an increase in formation of a new junction with an alternative exon (AJ). Real-time qPCR assays were used to detect these splicing switches and interrogate the potency of various compounds towards different target genes. A high-throughput real time quantitative PCR (RT-qPCR) assay was developed to measure these two isoforms of the mRNA (CJ and AJ) for an exemplary gene, HTT, together with a control housekeeping gene, GAPDH or GUSB or PPIA, used for normalization. Briefly, the A673 or K562 cell line was treated with various compounds described herein (e.g., compounds of Formula (I) or (II)). After treatment, the levels of the HTT mRNA targets were determined from each sample of cell lysate by cDNA synthesis followed by qPCR. The data analysis was performed by first determining the ΔCt vs the housekeeper gene. This ΔCt was then normalized against the DMSO control (ΔΔCt) and converted to RQ (relative quantification) using the 2^(−ΔΔCt) equation. The RQ were then converted to a percentage response by arbitrarily setting an assay window of 3.5 ΔCt for HTT-CJ and an assay window of 9 ΔCt for HTT-AJ. […] The percentage response was then fitted to the 4 parametric logistic equation to evaluate the concentration dependence of compound treatment. The increase in AJ mRNA is reported as AC50 (compound concentration having 50% response in AJ increase) while the decrease in CJ mRNA levels is reported as IC50 (compound concentration having 50% response in CJ decrease). Additional studies were carried out for a larger panel of genes using the protocol provided above. The junction between flanking upstream and downstream exons was used to design canonical junction qPCR assays. At least one of the forward primer, reverse primer or the CY5-labeled 5′ nuclease probe (with 3′ quencher such as ZEN/Iowa Black FQ) was designed to overlap with the exon junction to capture the CJ mRNA transcript. BLAST was used to confirm the specificity of the probeset and parameters such as melting temperature, GC content, amplicon size, and primer dimer formation are considered during their design. Data for the decrease in CJ mRNA levels for three exemplary genes (HTT, SMN2, and Target C) analyzed in this panel are reported as IC50 (compound concentration having 50% response in CJ decrease).

[2] = system: Target C CJ mRNA; assay: Gene panel canonical junction qPCR splicing assay, Target C; settings: Table 4, read-out: Target C IC50 (decrease in CJ mRNA levels)
Protocol: as §1

[3] = system: SMN2 CJ mRNA; assay: Gene panel canonical junction qPCR splicing assay, SMN2; settings: Table 4, read-out: SMN2 IC50 (decrease in CJ mRNA levels)
Protocol: as §1

[4] = system: HTT mRNA; assay: Splicing assay (RT-qPCR) of HTT mRNA alternative junction (AJ) and canonical junction (CJ); settings: A673 or K562 cells, 24 hours; for pIC50: decrease in CJ mRNA, read-out: HTT CJ IC50; for AC50: increase in AJ mRNA, read-out: HTT AJ AC50
Protocol: Compounds described herein were used to modulate RNA transcript abundance in cells. The expression of a target mRNA was measured by detecting the formation of an exon-exon junction in the canonical transcript (CJ). A compound mediated exon-inclusion event was detected by observing an increase in formation of a new junction with an alternative exon (AJ). Real-time qPCR assays were used to detect these splicing switches and interrogate the potency of various compounds towards different target genes. A high-throughput real time quantitative PCR (RT-qPCR) assay was developed to measure these two isoforms of the mRNA (CJ and AJ) for an exemplary gene, HTT, together with a control housekeeping gene, GAPDH or GUSB or PPIA, used for normalization. Briefly, the A673 or K562 cell line was treated with various compounds described herein (e.g., compounds of Formula (I) or (II)). After treatment, the levels of the HTT mRNA targets were determined from each sample of cell lysate by cDNA synthesis followed by qPCR.
Materials: • Cells-to-CT 1-step kit: ThermoFisher A25602, Cells-to-CT lysis reagent: ThermoFisher 4391851C, TagMan™ Fast Virus 1-Step Master Mix: ThermoFisher 4444436 • GAPDH: VIC-PL, ThermoFisher 4326317E (Assay: Hs99999905_ml)—used for K562/suspension cell lines • GUSB: VIC-PL, ThermoFisher 4326320E (Assay: Hs99999908 ml)—used for K562/suspension cell lines • PPIA: VIC-PL, ThermoFisher 4326316E (Assay: Hs99999904 ml)—used for A673/adherent cell lines
The A673 cell line was cultured in DMEM with 10% FBS. Cells were diluted with full growth media and plated in a 96-well plate (15,000 cells in 100 ul media per well). The plate was incubated at 37° C. with 5% CO2 for 24 hours to allow cells to adhere. An 11-point 3-fold serial dilution of the compounds was made in DMSO then diluted in media in an intermediate plate. Compounds were transferred from the intermediate plate to the cell plate with the top dose at a final concentration of 10 uM in the well. Final DMSO concentration was kept at or below 0.25%. The cell plate was returned to the incubator at 37° C. with 5% CO2 for an additional 24 hours.
The K562 cell line was cultured in IMDM with 10% FBS. For K562, cells were diluted with full growth media and plated in either a 96-well plate (50,000 cells in 50 uL media per well) or a 384-well plate (8,000-40,000 cells in 45 uL media per well). An 11-point 3-fold serial dilution of the compounds were made in DMSO then diluted in media in an intermediate plate. Compound was transferred from the intermediate plate to the cell plate with the top dose at a final concentration of 10 uM in the well. Final DMSO concentration was kept at or below 0.25%. Final volume was 100 uL for 96-well plate and 50 uL for 384-well plate. The cell plate was then placed in an incubator at 37° C. with 5% CO2 for 24 hours.
The cells were then gently washed with 50 uL-100 uL cold PBS before proceeding to addition of lysis buffer. 30 uL-50 uL of room temperature lysis buffer with DNAse I (and optionally RNAsin) was added to each well. Cells were shaken/mixed thoroughly at room temperature for 5-10 minutes for lysis to take place and then 3 uL-5 uL of room temperature stop solution was added and wells were shaken/mixed again. After 2-5 minutes, the cell lysate plate was transferred to ice for RT-qPCR reaction setup. The lysates could also be frozen at −80° C. for later use.
In some cases, a direct lysis buffer was used. An appropriate volume of 3X lysis buffer (10 mM Tris, 150 mM NaCl, 1.5%-2.5% Igepal and 0.1-1 U/uL RNAsin, pH 7.4) was directly added to either K562 or A673 cells in media and mixed by pipetting 3 times. The plates were then incubated at room temperature with shaking/rocking for 20-50 minutes to allow for lysis to take place. After this time, the cell lysate plate was transferred to ice to set up for the RT-qPCR reactions. The lysates could also be frozen at −80° C. for later use. […]

SMILES | pIC50 [1] | pIC50 [2] | pIC50 [3] | pIC50 [4] | AC50 [4] [nM]
Cc1nc2cc(O)c(-c3ccc4nc(N5CC[C@@H](NC6(C)CC6)C5)ccc4n3)cc2o1 (single isomer, unassigned) [Compound 258, 2-methyl-6-(6-{3-[(1-methylcyclopropyl)amino]pyrrolidin-1-yl}-1,5-naphthyridin-2-yl)-1,3-benzoxazol-5-ol] | > 7.00 | 6.00 to 7.00 | > 7.00 | > 7.00 | < 100
Cc1c(O)c(-c2ccc3nc(N4CC[C@@H](NC5CC5)C4)ccc3n2)cc2cn(C)nc12 (single isomer, unassigned) [Compound 259] | > 7.00 | > 7.00 | > 7.00 | > 7.00 | < 100
Cc1c(O)c(-c2ccc3nc(N4CC[C@H](NC5CC5)C4)ccc3n2)cc2cn(C)nc12 (single isomer, unassigned) [Compound 260] | > 7.00 | > 7.00 | > 7.00 | > 7.00 | < 100
Cn1cc2cc(-c3ccc4nc(N5CC[C@H](NC6COC6)C5)ccc4n3)c(O)cc2n1 (stereo in doubt) [Compound 189] | 5.00 to 6.00 | 5.00 to 6.00 | > 7.00 | 5.00 to 6.00 | 100 to 1000
Cn1cc2cc(-c3ccc4nc(N5CC[C@@H](NCC(F)(F)F)C5)ccc4n3)c(O)cc2n1 (stereo in doubt) [Compound 245] | < 5.00 | < 5.00 | 5.00 to 6.00 | < 5.00 | > 10000
Cn1cc2cc(-c3ccc4nc(C5CCNCC5)ccc4n3)c(O)cc2n1 [Compound 100, 2-methyl-5-[6-(piperidin-4-yl)-1,5-naphthyridin-2-yl]indazol-6-ol] | > 7.00 | > 7.00 | > 7.00 | > 7.00 | 100 to 1000
Cc1c(O)c(-c2ccc3nc(C4CCNCC4)ccc3n2)cc2cn(C)nc12 [Compound 101, 2,7-dimethyl-5-[6-(piperidin-4-yl)-1,5-naphthyridin-2-yl]indazol-6-ol] | > 7.00 | > 7.00 | > 7.00 | > 7.00 | < 100
Cn1cc2cc(-c3ccc4nc(C5CCNCC5)ccc4n3)c(O)c(F)c2n1 [Compound 102, 7-fluoro-2-methyl-5-[6-(piperidin-4-yl)-1,5-naphthyridin-2-yl]indazol-6-ol] | > 7.00 | > 7.00 | > 7.00 | > 7.00 | < 100
Cc1cn2nc(-c3ccc4nc(C5CCNCC5)ccc4n3)c(O)cc2n1 [Compound 103, 2-methyl-6-[6-(piperidin-4-yl)-1,5-naphthyridin-2-yl]imidazo[1,2-b]pyridazin-7-ol] | 6.00 to 7.00 | 5.00 to 6.00 | < 5.00 | 6.00 to 7.00 | 100 to 1000
Cn1cc2c(O)c(-c3ccc4nc(C5CCNCC5)ccc4n3)ccc2n1 [Compound 105, 2-methyl-5-[6-(piperidin-4-yl)-1,5-naphthyridin-2-yl]indazol-4-ol] | < 5.00 | 5.00 to 6.00 | 5.00 to 6.00 | < 5.00 | > 10000
Cn1cc2c(O)c(-c3cc4ccc(C5CCNCC5)nc4cn3)ccc2n1 [Compound 106, 2-methyl-5-[2-(piperidin-4-yl)-1,7-naphthyridin-6-yl]indazol-4-ol] | 5.00 to 6.00 | 5.00 to 6.00 | 6.00 to 7.00 | 5.00 to 6.00 | 1000 to 10000
Cn1cc2cc(-c3ncc4nc(C5CCNCC5)ccc4n3)c(O)cc2n1 [Compound 107, 2-methyl-5-[6-(piperidin-4-yl)pyrido[3,2-d]pyrimidin-2-yl]indazol-6-ol] | 6.00 to 7.00 | 5.00 to 6.00 | > 7.00 | 6.00 to 7.00 | 100 to 1000
Cn1cc2c(O)c(-c3ncc4nc(C5CCNCC5)ccc4n3)ccc2n1 [Compound 108, 2-methyl-5-[6-(piperidin-4-yl)pyrido[3,2-d]pyrimidin-2-yl]indazol-4-ol] | 5.00 to 6.00 | 5.00 to 6.00 | > 7.00 | 5.00 to 6.00 | 1000 to 10000
Cn1cc2cc(-c3ccc4cc(C5CCNCC5)ccc4n3)c(O)cc2n1 [Compound 109, 2-methyl-5-[6-(piperidin-4-yl)quinolin-2-yl]indazol-6-ol] | > 7.00 | 6.00 to 7.00 | > 7.00 | > 7.00 | 100 to 1000
CN(C(=O)Nc1cn[nH]c1)c1cc2nc(N3CCNCC3)ccc2cn1 [Compound 110, 1-methyl-1-[2-(piperazin-1-yl)-1,6-naphthyridin-7-yl]-3-(1H-pyrazol-4-yl)urea] | < 5.00 | > 7.00 | < 5.00 | – | > 10000
O=C(Nc1cn[nH]c1)Nc1cc2nc(N3CCNCC3)ccc2cn1 [Compound 111, 1-[2-(piperazin-1-yl)-1,6-naphthyridin-7-yl]-3-(1H-pyrazol-4-yl)urea] | < 5.00 | < 5.00 | < 5.00 | < 5.00 | > 10000
O=C(NCc1ccn[nH]1)Nc1cc2nc(N3CCNCC3)ccc2cn1 [Compound 112, 1-[2-(piperazin-1-yl)-1,6-naphthyridin-7-yl]-3-(2H-pyrazol-3-ylmethyl)urea] | < 5.00 | < 5.00 | < 5.00 | < 5.00 | > 10000
